Patent publication US9353081B2, “Bicyclic dihydroquinoline-2-one derivatives” (Hoffmann-La Roche Inc., priority 2011, dated 2016)

Experiments:
human CYP11B2 = human CYP11B2 (Homo sapiens (Human), UniProt P19099); experiment: G-402 cellular enzyme assay, human CYP11B2 (aldosterone release, HTRF); assay type: cell-based; conditions: G-402 cells expressing human CYP11B2; 1 μM Deoxycorticosterone
Source text: (§1) Specifically we developed stable G-402 cells expressing ectopically human CYP11B1, human CYP11B2, human CYP11A1, cynomolgus CYP11B1 or cynomolgus CYP11B2 enzyme activity.
(§2) The expression plasmids contains the ORF for either human/cyno CYP11B1 or CYP11B2 under the control of a suitable promoter (CMV-promoter) and a suitable resistance marker (neomycin). Using standard techniques the expression plasmid is transfected into G-402 cells and these cells are then selected for expressing the given resistance markers. Individual cell-clones are then selected and assessed for displaying the desired enzymatic activity using 11-Deoxycorticosterone (Cyp11B2) or 11-Deoxycortisol (Cyp11B1) as a substrate.
(§3) For assaying enzymatic activity, cells were plated onto 96 well plates and incubated for 16 h. An aliquot of the supernatant is then transferred and analyzed for the concentration of the expected product (Aldosterone for CYP11B2; Cortisol for CYP11B1). The concentrations of these steroids can be determined using HTRF assays from CisBio analyzing either Aldosterone or Cortisol.
(§4) Inhibition of the release of produced steroids can be used as a measure of the respective enzyme inhibition by test compounds added during the cellular enzyme assay. The dose dependent inhibition of enzymatic activity by a compound is calculated by means of plotting added inhibitor concentrations x-axes) vs. measured steroid/product level (y-axes). The inhibition is then calculated by fitting the following 4-parameter sigmoidal function (Morgan-Mercer-Flodin (MMF) model) to the raw data points using the least squares method:
(§5) [formula] wherein, A is the maximum y value, B is the EC50 factor determined using XLFit, C is the minimum y value and D is the slope value.
(§6) EC50 values for compounds claimed herein were tested with the G402-based assay system described. Cyp11B2 enzyme activity was tested in presence of 1 μM Deoxycorticosterone and variable amounts of inhibitors; Cyp11B1 enzyme activity was tested in presence of 1 μM Deoxycortisol and variable amounts of inhibitors.

human CYP11B1 = human CYP11B1 (Homo sapiens (Human), UniProt P15538); experiment: G-402 cellular enzyme assay, human CYP11B1 (cortisol release, HTRF); assay type: cell-based; conditions: G-402 cells expressing human CYP11B1; 1 μM Deoxycortisol
Source text: as §1, §2, §3, §4, §5, §6

Chain of human CYP11B2 (P19099 25-503): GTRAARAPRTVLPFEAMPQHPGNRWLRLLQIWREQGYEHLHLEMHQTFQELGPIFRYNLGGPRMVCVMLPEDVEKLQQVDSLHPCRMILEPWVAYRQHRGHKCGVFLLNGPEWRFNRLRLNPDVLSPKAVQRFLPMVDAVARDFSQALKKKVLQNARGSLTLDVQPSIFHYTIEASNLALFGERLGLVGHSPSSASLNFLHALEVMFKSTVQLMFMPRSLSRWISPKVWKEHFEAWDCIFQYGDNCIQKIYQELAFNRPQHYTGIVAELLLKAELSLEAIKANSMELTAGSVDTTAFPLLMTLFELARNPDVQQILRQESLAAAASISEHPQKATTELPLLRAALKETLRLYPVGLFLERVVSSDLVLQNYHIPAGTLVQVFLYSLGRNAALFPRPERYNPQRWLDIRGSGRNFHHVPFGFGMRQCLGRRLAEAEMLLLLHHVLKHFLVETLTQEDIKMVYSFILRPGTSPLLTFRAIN
Chain of human CYP11B1 (P15538 25-503): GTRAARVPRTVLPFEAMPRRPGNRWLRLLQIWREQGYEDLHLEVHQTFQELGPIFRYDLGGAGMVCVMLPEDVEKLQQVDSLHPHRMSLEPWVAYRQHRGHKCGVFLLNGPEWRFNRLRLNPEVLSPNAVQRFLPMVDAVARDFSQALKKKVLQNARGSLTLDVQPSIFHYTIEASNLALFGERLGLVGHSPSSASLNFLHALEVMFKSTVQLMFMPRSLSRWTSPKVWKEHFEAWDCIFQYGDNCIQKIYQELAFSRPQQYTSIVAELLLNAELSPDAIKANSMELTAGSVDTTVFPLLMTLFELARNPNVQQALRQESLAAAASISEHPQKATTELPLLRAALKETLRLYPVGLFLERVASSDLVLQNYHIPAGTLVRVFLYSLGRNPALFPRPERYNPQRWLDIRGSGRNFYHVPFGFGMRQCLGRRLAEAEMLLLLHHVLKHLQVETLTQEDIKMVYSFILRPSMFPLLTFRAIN

Structure (SMILES) | EC50 (human CYP11B2) [µM] | EC50 (human CYP11B1) [µM]
CCC(=O)N[C@@H]1c2cncc(-c3ccc4c(c3)CCC(=O)N4C)c2CC[C@@H]1C (single isomer, unassigned) [Example 46, (−)-N-[(7S,8S or 7R,8R)-7-Methyl-4-(1-methyl-2-oxo-1,2,3,4-tetrahydro-quinolin-6-yl)-5,6,7,8-tetrahydro-isoquinolin-8-yl]-propionamide] | 0.467 | 19.3
CCC(=O)NCCN1CCCc2c(-c3ccc4c(c3)CCC(=O)N4C)cncc21 [Example 13, N-{2-[5-(1-Methyl-2-oxo-1,2,3,4-tetrahydro-quinolin-6-yl)-3,4-dihydro-2H-[1,7]naphthyridin-1-yl]-ethyl}-propionamide] | 0.014 | 1.81
CCC(=O)NC1CCc2c(-c3ccc4c(c3)CCC(=O)N4C)cncc21 (racemic) [Example 7, (rac)-N-(4-(1-Methyl-2-oxo-1,2,3,4-tetrahydroquinolin-6-yl)-6,7-dihydro-5H-cyclopenta[c]pyridin-7-yl)propionamide] | 0.012 | 1.11
CN1C(=O)CCc2cc(-c3cncc4c3CCC[C@H]4NC(=O)c3ncccc3Cl)ccc21 [Example 62, 3-Chloro-pyridine-2-carboxylic acid [(R)-4-(1-methyl-2-oxo-1,2,3,4-tetrahydro-quinolin-6-yl)-5,6,7,8-tetrahydro-isoquinolin-8-yl]-amide] | 0.0053 | 0.558
CCS(=O)(=O)NC1CCCc2c(-c3cc(Cl)c4c(c3)CCC(=O)N4C)cncc21 (single isomer, unassigned; (+)) [Example 38, (+)-Ethanesulfonic acid [(R or S)-4-(8-chloro-1-methyl-2-oxo-1,2,3,4-tetrahydro-quinolin-6-yl)-5,6,7,8-tetrahydro-isoquinolin-8-yl]-amide] | 0.422 | 15.9
CC(O)C(=O)NC1CCCc2c(-c3ccc4c(c3)CCC(=O)N4C)cncc21 [Example 15, (2R,S)-2-Hydroxy-N-[(4R,S)-4-(1-methyl-2-oxo-1,2,3,4-tetrahydroquinolin-6-yl)-5,6,7,8-tetrahydroisoquinolin-8-yl]propanamide] | 0.0773 | 0.574
CC(=O)N[C@@H]1CCCc2c(-c3ccc4c(c3)CCC(=O)N4C)cncc21 [Example 63, N—[(R)-4-(1-Methyl-2-oxo-1,2,3,4-tetrahydro-quinolin-6-yl)-5,6,7,8-tetrahydro-isoquinolin-8-yl]-acetamide] | 0.0048 | 1.19
CN1C(=O)CCc2cc(-c3cncc4c3CCCC4O)ccc21 (single isomer, unassigned) [Example 69, (R or S)-6-(8-Hydroxy-5,6,7,8-tetrahydro-isoquinolin-4-yl)-1-methyl-3,4-dihydroquinolin-2(1H)-one] | 0.002 | 0.0541
CCS(=O)(=O)NC1CCCc2c(-c3ccc4c(c3)CCC(=O)N4C)cncc21 (racemic) [Example 4, (rac)-N-(4-(1-Methyl-2-oxo-1,2,3,4-tetrahydroquinolin-6-yl)-5,6,7,8-tetrahydroisoquinolin-8-yl)ethanesulfonamide] | 0.097 | 4.92
CCC(=O)NC1CCCc2c(-c3ccc4c(c3)CCC(=O)N4C)cncc21 (single isomer, unassigned; (+)) [Example 3, (+)-(S or R)—N-(4-(1-Methyl-2-oxo-1,2,3,4-tetrahydroquinolin-6-yl)-5,6,7,8-tetrahydroisoquinolin-8-yl)propionamide] | 0.014 | 0.98
CCS(=O)(=O)NC1CCCc2c(-c3cc4c(cc3F)N(C)C(=O)CC4)cncc21 (single isomer, unassigned; (+)) [Example 32, (+)-(R or S)-Ethanesulfonic acid [4-(7-fluoro-1-methyl-2-oxo-1,2,3,4-tetrahydro-quinolin-6-yl)-5,6,7,8-tetrahydro-isoquinolin-8-yl]-amide] | 0.0782 | 4.24
CN1C(=O)CCc2cc(-c3cncc4c3CCC[C@H]4NS(C)(=O)=O)ccc21 [Example 65, N—[(R)-4-(1-Methyl-2-oxo-1,2,3,4-tetrahydro-quinolin-6-yl)-5,6,7,8-tetrahydro-isoquinolin-8-yl]-methanesulfonamide] | 0.017 | 1.93
C[C@H](O)C(=O)NC1CCCc2c(-c3ccc4c(c3)CCC(=O)N4C)cncc21 (stereo partly drawn) [Example 17, (2S)-2-Hydroxy-N-((4R,S)-4-(1-methyl-2-oxo-1,2,3,4-tetrahydroquinolin-6-yl)-5,6,7,8-tetrahydroisoquinolin-8-yl)propanamide] | 0.0316 | 0.885
CCS(=O)(=O)NC1CCCc2c(-c3cc4c(cc3F)N(C)C(=O)CC4)cncc21 (single isomer, unassigned; (-)) [Example 31, (−)-(S or R)-Ethanesulfonic acid [4-(7-fluoro-1-methyl-2-oxo-1,2,3,4-tetrahydro-quinolin-6-yl)-5,6,7,8-tetrahydro-isoquinolin-8-yl]-amide] | 1.04 | 14.5
CCC(=O)NC1CCc2c(-c3ccc4c(c3)CCC(=O)N4C)cncc21 (single isomer, unassigned; (+)) [Example 9, (+)-(S or R)—N-(4-(1-Methyl-2-oxo-1,2,3,4-tetrahydroquinolin-6-yl)-6,7-dihydro-5H-cyclopenta[c]pyridin-7-yl)propionamide] | 0.013 | 0.57
CN1C(=O)CCc2cc(-c3cncc4c3CCC[C@H]4NS(=O)(=O)C3CC3)ccc21 [Example 66, Cyclopropanesulfonic acid [(R)-4-(1-methyl-2-oxo-1,2,3,4-tetrahydro-quinolin-6-yl)-5,6,7,8-tetrahydro-isoquinolin-8-yl]-amide] | 0.0355 | 0.319
CCS(=O)(=O)NCCN1CCCc2c(-c3ccc4c(c3)CCC(=O)N4C)cncc21 [Example 14, N-(2-(5-(1-Methyl-2-oxo-1,2,3,4-tetrahydroquinolin-6-yl)-3,4-dihydro-1,7-naphthyridin-1(2H)-yl)ethyl)ethanesulfonamide] | 0.011 | 0.21
CCC(=O)NC1CCCc2c(-c3ccc4c(c3)CCC(=O)N4C)cncc21 (single isomer, unassigned; (-)) [Example 2, (−)-(R or S)—N-(4-(1-Methyl-2-oxo-1,2,3,4-tetrahydroquinolin-6-yl)-5,6,7,8-tetrahydroisoquinolin-8-yl)propionamide] | 1.02 | 12.1
CCC(=O)N[C@@H]1c2cncc(-c3ccc4c(c3)CCC(=O)N4C)c2CC[C@@H]1F (single isomer, unassigned) [Example 51, (−)-N-[(7S,8R or 7R,8S)-7-Fluoro-4-(1-methyl-2-oxo-1,2,3,4-tetrahydro-quinolin-6-yl)-5,6,7,8-tetrahydro-isoquinolin-8-yl]-propionamide] | 1.47 | 32.3
CN1C(=O)CCc2cc(-c3cncc4c3CCCC4O)ccc21 (single isomer, unassigned) [Example 68, (S or R)-6-(8-Hydroxy-5,6,7,8-tetrahydro-isoquinolin-4-yl)-1-methyl-3,4-dihydroquinolin-2(1H)-one] | 0.0774 | 1.62
CCC(=O)N[C@H]1c2cncc(-c3ccc4c(c3)CCC(=O)N4C)c2CC[C@@H]1C (single isomer, unassigned) [Example 42, (+)-N-[(7S,8R or 7R,8S)-7-Methyl-4-(1-methyl-2-oxo-1,2,3,4-tetrahydro-quinolin-6-yl)-5,6,7,8-tetrahydro-isoquinolin-8-yl]-propionamide] | 0.0145 | 0.524
CCC(=O)N[C@H]1c2cncc(-c3ccc4c(c3)CCC(=O)N4C)c2CC[C@@H]1F (single isomer, unassigned) [Example 52, (+)-N-[(7S,8S or 7R,8R)-7-Fluoro-4-(1-methyl-2-oxo-1,2,3,4-tetrahydro-quinolin-6-yl)-5,6,7,8-tetrahydro-isoquinolin-8-yl]-propionamide] | 0.0258 | 1.59
CCC(=O)NC1CCCc2c(-c3cc4c(cc3F)N(C)C(=O)CC4)cncc21 (single isomer, unassigned; (+)) [Example 30, (+)-(R or S)—N-[4-(7-fluoro-1-methyl-2-oxo-1,2,3,4-tetrahydro-quinolin-6-yl)-5,6,7,8-tetrahydro-isoquinolin-8-yl]-propionamide] | 0.03 | 3.68
CCC(=O)N[C@H]1c2cncc(-c3ccc4c(c3)CCC(=O)N4C)c2CC[C@H]1C (single isomer, unassigned) [Example 49, (+)-N-[(7R,8R or 7S,8S)-7-Methyl-4-(1-methyl-2-oxo-1,2,3,4-tetrahydro-quinolin-6-yl)-5,6,7,8-tetrahydro-isoquinolin-8-yl]-propionamide] | 0.0442 | 3.95
